Test results published in article PMC9569450, “Dual Effect of Tryptamine on Prostate Cancer Cell Growth Regulation: A Pilot Study” (International Journal of Molecular Sciences, 2022).

Experiments:
A549 cells [1] = test: Transwell migration assay, A549; type: cell-based; conditions: 24 h
Description: (§1) Cell migration was evaluated using 8-μm transwell filters (Costar Corning, Schiphol-Rijk, The Netherlands). Cells at a density of 5 × 10^4 were seeded to the upper chamber, and the chamber was filled with FBS-free medium. Cells were incubated overnight to allow for adherence; then, the lower chamber was replaced with 10% FBS medium as a chemo-attractant. Following a 24 h incubation, non-migrating cells on the upper surface of the insert membrane were gently removed by cotton swabs and migrated cells on the lower surface of the insert membrane were fixed by 4% paraformaldehyde and stained with 0.1% crystal violet for 20 min. Migrated cells on each membrane were photographed and counted at 100× magnification field at six random fields.

HepG2 cells = test: MTT cell proliferation assay, HepG2; type: cell-based; conditions: Homo sapiens, HepG2, 48 h treatment in FBS-free medium, read-out: IC50 Value (Mean ± SD mM) HepG2
Description: (§2) PC-3, LNCaP, RWPE-1, HepG2, A549, and PANC-1 cells were purchased from the National Collection of Authenticated Cell Cultures (Shanghai, China). […] All the above cell cultures were supplied with 10% fetal bovine serum and 1% penicillin-streptomycin. RWPE-1 cells were cultured in keratinocyte serum-free medium (K-SFM, Gibco, New York, NY, USA) supplemented with 50 mg/L bovine pituitary extract and 5 μg/L epidermal growth factor (EGF). All cell lines were grown in a humidified atmosphere of 5% CO2 at 37 °C.
(§3) Cells were seeded in 100 μL complete medium in a 96-well plate, at a density of 10,000 cells/well for LNCaP and 5000 cells/well for other cells. Cells were pre-incubated for 24 h to allow for adherence before removal of complete medium and treatment with various concentrations of compounds in fetal bovine serum (FBS)-free medium for 48 h. After treatment, 20 μL/well MTT (5 mg/mL) was added and incubated for 3–4 h at 37 °C, and then 100 μL/well DMSO was added for MTT assay. The plate was shaken on an orbital shaker for 10 min. Absorbance was measured using a microplate reader at 492 nm for the MTT assay (performed in triplicates). Cell viability was normalized to control. Half inhibitory concentration (IC50) was calculated by SPSS Statistics 17.0. […] The experiments were independently repeated two to three times.

LNCaP cells = test: MTT cell proliferation assay, LNCaP; type: cell-based; conditions: Homo sapiens, LNCaP, 48 h treatment in FBS-free medium, read-out: IC50 Value (Mean ± SD mM) LNCaP
Description: as §2, §3

[2] = UPLC-HRMS detection of tryptamine in serum or tissue samples of xenograft mice; type: in vivo, BALB/c nude mice
Description: However, intraperitoneal injection of tryptamine promoted the growth of PC-3 xenograft tumors in nude mice. […] Additionally, it has been reported that the intraperitoneal injections of 10 mg/kg 5-HT increased tumor weight by almost 60% using an orthotopic mouse model of ovarian cancer. As is known, both 5-HT and tryptamine in the blood can be taken up and carried by platelets and released during degranulation, and also various tryptamine-related compounds are substrates of the platelet 5-HT transporter. Thus, the tumor growth promoting effect of intraperitoneal treatment of tryptamine in our study might be similar to the effect of 5-HT, which has long been thought to be related to tumor progression.

PC-3 cells [3] = test: MTT cell proliferation assay, PC-3; type: cell-based, human; conditions: Homo sapiens, PC-3, 48 h treatment in FBS-free medium, read-out: IC50 Value (Mean ± SD mM) PC-3
Description: as §2, §3

PANC-1 cells [4] = test: Transwell migration assay, PANC-1; type: cell-based; conditions: 24 h
Description: as §1

A549 cells [5] = test: MTT cell proliferation assay, A549; type: cell-based; conditions: Homo sapiens, A549, 48 h treatment in FBS-free medium, read-out: IC50 Value (Mean ± SD mM) A549
Description: as §2, §3

PANC-1 cells [6] = test: MTT cell proliferation assay, PANC-1; type: cell-based; conditions: Homo sapiens, PANC-1, 48 h treatment in FBS-free medium, read-out: IC50 Value (Mean ± SD mM) PANC-1
Description: as §2, §3

PC-3 cells [7] = test: Transwell migration assay, PC-3; type: cell-based, human; conditions: 24 h
Description: as §1

In the case of `NCCc1c[nH]c2ccccc12` [Tryptamine], the “migrated cells compared with the control” value (A549 cells [1]; A549, 0.075 mM) is reported as “no significant difference”, the “percentage of migrated cells” value (A549 cells [1]; A549, 0.15 mM) is reported as 80% and the “percentage of migrated cells” value (A549 cells [1]; A549, 0.3 mM) is reported as 63%. The IC50 (HepG2 cells) was 0.35 ± 0.02 mM, the IC50 (LNCaP cells) was 0.037 ± 0.001 mM and the “tryptamine in serum or tissue samples” value ([2]; intraperitoneal treatment group) was “not detected”. The “tryptamine in tissue samples” value ([2]; intratumoral treatment group) was “apparent peak”, the IC50 (PC-3 cells [3]) was 0.24 ± 0.01 mM and the “migrated cells reduced by” value (PANC-1 cells [4]; PANC-1, 0.075 mM) was 43%. The “percentage of migrated cells” value (PANC-1 cells [4]; PANC-1, 0.15 mM) was 45%, the “percentage of migrated cells” value (PANC-1 cells [4]; PANC-1, 0.3 mM) was 27% and the IC50 (A549 cells [5]) was 0.46 ± 0.01 mM. For the same compound, the IC50 (PANC-1 cells [6]) was 0.38 ± 0.01 mM, the “migrated cells reduced by” value (PC-3 cells [7]; PC-3, 0.075 mM) was 22% and the “percentage of migrated cells” value (PC-3 cells [7]; PC-3, 0.15 mM) was 58%. The “percentage of migrated cells” value (PC-3 cells [7]; PC-3, 0.3 mM) was 23%.
